Where two headings read alike, the source gives them in different places.
What was measured:
[1] = Pharmacokinetics of LUM001 after oral gavage in rats; type: in vivo; details: both sexes, Sprague Dawley, rat, plasma; for bioavailability: read-out: BA (bioavailability); for AUC(0-t): read-out: AUC(0-8 h)
Experimental: Groups of fasted Sprague Dawley rats (n=6/sex/group) were administered LUM001 as a single oral solution dose of either 1, 5 or 30 mg LUM001 free form/kg. The dose of 5 mg LUM001 free form/kg was also administered to rats in a fed state to evaluate the effect of food on plasma concentrations of LUM001 free form. Since LUM001 is a chloride salt, 105% of the amount of LUM001 is required to deliver the stated dose of the free form. The oral dose was delivered to the rat in Tween 80Milli-Q water (0.2% Tween, v/v) and was prepared on the day of dosing.
Blood samples of approximately 1 mL (n=2/sex/timepoint/treatment group) were collected by retro-orbital bleed into chilled tubes containing heparin at timepoints 0 (predose), 0.25, 0.5, 1, 1.5, 2, 3, 5 and 8 hours. The plasma samples were prepared by centrifugation of blood within 30 minutes after sample collection. All samples were stored at −20° C.±5° C. until analysis to study the relative exposures of LUM001 free form after oral solution dosing. The concentration of LUM001 free form in plasma were determined using an LCMSMS method. The assay sensitivity was 2.38 ng/mL.
Means and standard errors of the means (SEM) were calculated for plasma concentrations at each time point. Mean values are significant to three figures and SEM values are significant to the same decimal place as the corresponding mean. Concentration values less than the assay sensitivity (2.38 ng LUM001 free form/mL) were reported as zero. The area under the plasma concentration-time curve (AUC) was calculated from time 0 to 8 hours using a non-compartmental model in WinNonlin (1). The bioavailability (% BA) of LUM001 after oral administration of LUM001 was calculated according to the equation below:
% BA=[AUC oral (0-8)/AUC IV(0-8)/Dose oral/Dose IV]×100.

[2] = tested on: postprandial serum bile acids AUC; experiment: Inhibition of the postprandial rise in SBA, LUM001 compared to cholestyramine; type: in vivo, dogs
Experimental: LUM001 was dissolved in 0.2% Tween 80 at concentrations that required the administration of 0.2 ml dosing solution/kg of body weight at each dose tested. Cholestyramine was suspended in water at concentrations that required the administration of 2.5 ml/kg (500 mg/kg) and 1 ml/kg (200 mg/kg). The appropriate volume of solution formulation for each animal was placed into a gelatin capsule, Torpac Inc., size 13, Batch 594, East Hanover, N.J. and administered per os. Test compounds were administered as single oral doses to groups of dogs, 3 to 9 dogs per group at varying dosages. LUM001 and cholestyramine were administered in solution 30 minutes prior to feeding and blood samples collected at 30-minute intervals for four hours after feeding. LUM001 was given at 0, 0.02, 0.05, 0.2, 0.6, 2, 5 or 15 mg/kg. Cholestyramine was administered at 200 or 500 mg/kg. […] No dog received any one compound dosage more than once. SBA was measured by an enzymatic assay. SBA values are expressed as μg of total bile acids/ml of serum.

[3] = Systemic exposure of LUM001 in patients under 18 years (study NB-00-02-014); type: in vivo, human; details: for Average serum drug exposure: day eight
Experimental: LUM001 has been administered to forty patients under the age of 18 years old. […] The drug was administered once-a-day (QD) in the morning for fourteen days. […] These doses are similar to those using to treat patients with Barrett's esophagus or GERD.

[4] = Pharmacokinetics of LUM002 100 mg single oral dose in humans; type: in vivo, human
Experimental: Healthy male subjects, from 18 to 45 years of age, were given a single oral solution dose (100 mg in 100 mL) of LUM002 under fasting conditions. Blood samples for the determination of LUM002 plasma concentration were collected predose and 0.5, 1, 2, 3, 4, 5, 6, 8, 10, 12, 16, 24, and 48 hours after treatment administration. Plasma was obtained by centrifugation and […] processed for protein precipitation, centrifuged again to remove the precipitate and the supernatant prepared for LC-MSMS analysis. LUM002 plasma concentrations were determined using a validated liquid chromatography tandem mass spectrometry (LC-MSMS) assay with a lower limit of quantification (LLOQ) of 0.1 ng/mL. LUM002 plasma concentrations were used to determine the following pharmacokinetic parameters using standard noncompartmental techniques: Cmax, Tmax, AUClast, and, if applicable due to the low-absorbable characteristics of LUM002, also AUC, AUC0-24 and t1/2.

[5] = 5 mg/kg, single oral gavage 5 mg/kg free form, fasted
[6] = 5 mg/kg, single oral gavage 5 mg/kg free form, fed
[7] = 30 mg/kg, single oral gavage 30 mg/kg free form, fasted
[8] = 100 mg single oral dose, Geometric Mean, N=6
[9] = 100 mg single oral dose, Median, N=6
[10] = 100 mg single oral dose, Subject 250001149
[11] = 100 mg single oral dose, Subject 250001150
[12] = 100 mg single oral dose, Subject 250001151
[13] = 100 mg single oral dose, Subject 250001154
[14] = 100 mg single oral dose, Subject 250001155
[15] = 100 mg single oral dose, Subject 750001156
[16] = 100 mg single oral dose, mean, N=6

CCCCC1(CCCC)CS(=O)(=O)c2ccc(N(C)C)cc2[C@@H](c2ccc(OCc3ccc(C[N+]45CCN(CC4)CC5)cc3)cc2)[C@H]1O [LUM001]
bioavailability ([1]; 1 mg/kg, single oral gavage 1 mg/kg free form, fasted): < 0.1%
Cmax [1, 5]: 2.45 ng/mL
Tmax [1, 5]: 1 h
AUC(0-t) [1, 5]: 6.58 ng·h/mL
bioavailability [1, 5]: 0.1%
Cmax [1, 6]: 3.58 ng/mL
Tmax [1, 6]: 0.25 h
AUC(0-t) [1, 6]: 12.6 ng·h/mL
bioavailability [1, 6]: 0.2%
Cmax [1, 7]: 5.43 ng/mL
Tmax [1, 7]: 0.5 h
AUC(0-t) [1, 7]: 4.16 ng·h/mL
bioavailability [1, 7]: < 0.1%
Inhibition of postprandial serum bile acids AUC (0-240 min) compared to cholestyramine ([2]; LUM001 0.02-15 mg/kg vs cholestyramine 200 or 500 mg/kg, single oral doses): superior inhibition of postprandial serum bile acids AUC, at a lower dose
Serum bile acids ([2]; single oral dose 0.02-15 mg/kg 30 minutes prior to feeding): significantly decreased serum bile acids
Average serum drug exposure ([3]; Subject 0304, 1.0 mg QD (24.3 μg/kg)): 0.0 ng/mL
Average serum drug exposure ([3]; Subject 0308, 1.0 mg QD (28.9 μg/kg)): 0.0 ng/mL
Average serum drug exposure ([3]; Subject 0309, 1.0 mg QD (35.0 μg/kg)): 0.0 ng/mL
Average serum drug exposure ([3]; Subject 0410, 2.5 mg QD (42.0 μg/kg)): 0.0 ng/mL
Average serum drug exposure ([3]; Subject 0510, 5.0 mg QD (168.4 μg/kg)): 0.0 ng/mL
Systemic exposure of LUM001 ([3]; patients under 18 years, QD, measured on day eight): confirmed to be minimally absorbed

CCCC[C@]1(CC)CS(=O)(=O)c2ccc(N(C)C)cc2[C@@H](c2cccc(NC(=O)N[C@@H]3O[C@H](COS(=O)(=O)[O-])[C@@H](O)[C@H](OCc4ccccc4)[C@H]3O)c2)[C@H]1O.CCO.O.[K+] [LUM002, potassium((2R,3R,4S,5R,6R)-4-benzyloxy-6-{3-[3-((3S,4R,5R)-3-butyl-7-dimethylamino-3-ethyl-4-hydroxy-1,1-dioxo-2,3,4,5-tetrahydro-1H-benzo[b]thiepin-5-yl)-phenyl]-ureido}-3,5-dihydroxy-tetrahydro-pyran-2-ylmethyl)sulphate ethanolate, hydrate]
AUClast [4, 8]: 0.187 ng·h/mL
Cmax [4, 8]: 0.197 ng/mL
Tmax [4, 8]: 3.22 h
tlast [4, 8]: 4.93 h
AUClast [4, 9]: 0.148 ng·h/mL
Cmax [4, 9]: 0.216 ng/mL
Tmax [4, 9]: 5.00 h
tlag [4, 9]: 1.00 h
tlast [4, 9]: 5.00 h
AUC0-24 [4, 10]: 1.92 ng·h/mL
AUCExt [4, 10]: 39%
AUClast [4, 10]: 1.19 ng·h/mL
Cmax [4, 10]: 0.300 ng/mL
Tmax [4, 10]: 5.00 h
t1/2z [4, 10]: 3.39 h
tlag [4, 10]: 0.00 h
tlast [4, 10]: 8.00 h
AUClast [4, 11]: 0.0815 ng·h/mL
Cmax [4, 11]: 0.163 ng/mL
Tmax [4, 11]: 5.00 h
tlag [4, 11]: 4.00 h
tlast [4, 11]: 5.00 h
AUClast [4, 12]: 0.0645 ng·h/mL
Cmax [4, 12]: 0.129 ng/mL
Tmax [4, 12]: 3.00 h
tlag [4, 12]: 2.00 h
tlast [4, 12]: 3.00 h
AUClast [4, 13]: 0.215 ng·h/mL
Cmax [4, 13]: 0.269 ng/mL
Tmax [4, 13]: 6.00 h
tlag [4, 13]: 0.00 h
tlast [4, 13]: 6.00 h
AUClast [4, 14]: 0.522 ng·h/mL
Cmax [4, 14]: 0.286 ng/mL
Tmax [4, 14]: 0.50 h
tlag [4, 14]: 0.00 h
tlast [4, 14]: 4.00 h
AUClast [4, 15]: 0.0600 ng·h/mL
Cmax [4, 15]: 0.120 ng/mL
Tmax [4, 15]: 5.00 h
tlag [4, 15]: 4.00 h
tlast [4, 15]: 5.00 h
AUClast [4, 16]: 0.355 ng·h/mL
Cmax [4, 16]: 0.211 ng/mL
Tmax [4, 16]: 4.08 h
tlag [4, 16]: 1.67 h
tlast [4, 16]: 5.17 h
LUM002 dose systemically absorbed ([4]; healthy male subjects, single oral solution 100 mg, fasting): Less than 1%

— US20140271734A1, “BILE ACID RECYCLING INHIBITORS FOR TREATMENT OF BARRETT'S ESOPHAGUS AND GASTROESOPHAGEAL REFLUX DISEASE” (LUMENA PHARMACEUTICALS, INC., priority 2013, published 2014)
